Assay results from ChEMBL document CHEMBL3352364 (Bioorg Med Chem Lett, 2014).

How the values were obtained:
Rattus norvegicus [1] = organism: Rattus norvegicus; details: in vivo, ip
Description: Toxicity in ip dosed Sprague-Dawley rat assessed as catalepsy by Bar test

Rattus norvegicus [2] = organism: Rattus norvegicus; details: in vivo, ip; remark: listed apart in the source
Description: Toxicity in ip dosed Sprague-Dawley rat assessed as catalepsy by crossed-legs position test

| Compound | MED (Rattus norvegicus [1]) [mg/kg] | MED (Rattus norvegicus [2]) [mg/kg] |
| --- | --- | --- |
| OC1(c2ccc(Cl)cc2)CC2CCC(C1)N2CCCSc1ccc(F)cc1 (centres undefined) | 0.578 | 0.964 |
| OC1(c2ccc(Cl)cc2)CC2CCC(C1)N2CCCSc1cccc(F)c1 (centres undefined) | 12.7 | 12.7 |
